Experimental data taken from publication PMC12766730, “Controlled Self-Immolative Release of β‑Lapachone via an Optimized para-Hydroxybenzyl Linker for Targeted Pancreatic Cancer Therapy” (Journal of the American Chemical Society, 2025).
Where two headings read alike, the source gives them in different places.

Experiments:
[1] = Release of β-lapachone (1) from deprotected PHB/PAB linkers (3 or 25) in citrate-phosphate buffers pH 3–10, analytical HPLC; assay type: physicochemical; settings: for release rate faster than unsubstituted parent: 3f vs 3a, 25 vs 4
Procedure: First, the purified mixture of two prodrug diastereomers (16a–j) for each PHB derivative was incubated with β-glucuronidase. This enabled full removal of the glucuronide moiety from both diastereomers of the prodrug within 2–15 min, leaving a mixture of two PHB-β-lapachone enantiomers (3a–j, Figure c). For PAB compound 22, penicillin G amidase was used in place of β-glucuronidase to give a mixture of two PAB-β-lapachone enantiomers (25). The 3 (or 25) solution was then spiked into citrate-phosphate buffers from pH 3–10, and release of 1 from 3 (or 25) was measured at various time points by analytical HPLC. A single peak for the two enantiomers of 3 was observed after glucuronide removal, and thus the measured k obs was for both enantiomers in the mixture.
3 Release rate comparison for PHB and PAB prodrugs. The mechanisms of release for the β-glucuronide–PHB prodrug derivatives (a) and the PAB derivative (b) are shown. β-glucuronidase or penicillin G amidase deprotects the PHB or PAB linkers, yielding 3 or 25, respectively. A 1,6-elimination then occurs, releasing the hydroquinone form of β-lapachone, which then oxidizes into the ortho-quinone. (c) The substituents on the PHB/PAB linker for each derivative are shown and classified into which strategy they employed, lowering phenolate pK a or stabilizing the elimination TS. BLap = β-lapachone in its α-hydroxy ketol form (refer to panel a). The predicted pK a values are also shown, calculated using MolGpKa. (d) The representative HPLC traces of a release experiment for 3g at pH 7 are shown (RT: retention time) normalized to the warfarin (WF) internal standard (IS, RT = 11.6 min). The peak for 3g (RT = 12.5 min) decreases while the peak for 1 (RT = 10.8 min) increases over time. The traces for all other derivatives at each pH are included in Figures S10–S20, S34–S45. (e) The calculated k obs values from these release kinetic experiments for each PHB derivative are plotted versus pH on a logarithmic scale. Derivatives 3a–e were designed to lower the PHB phenol pK a, while derivatives 3f–j were designed to stabilize the 1,6-elimination TS. (f) The first-order reaction rate constants of the PAB derivatives 4 (pink) and 25 (purple) are plotted together with 3a (black) and the best-performing PHB derivatives 3f (cyan) and 3i (dark green) for direct comparison. The derivations of the plotted first-order k obs values from linearized initial velocities measured in triplicate are shown in Figures S23–S33. […]
Over time, the intensity of the 3/25 peak decreased, while the intensity of the 1 peak increased (Figure d). A standard curve for β-lapachone (Figure S22) was prepared, enabling quantification of the released β-lapachone.

[2] = HPLC stability assay of prodrugs in buffers pH 3, 5, 7, 7.4 (PBS), 9 at 37 °C for 72 h without trigger; assay type: physicochemical; settings: for stability of the prodrug without triggering enzyme: 37 °C, 72 h, pH 3–9; for premature lapachone release, percent of total prodrug: 72 h at 37 °C, no H2O2
Procedure: The diastereomeric mixture of each β-glucuronide–PHB-β-lapachone prodrug (16a–j) and PAB derivative 22 were then tested for stability in citrate-phosphate buffers across a range of pHs (3, 5, 7, 7.4 (PBS), 9) via an HPLC stability assay. For derivatives 16a, 16b, 16d, 16e, 16h, and 16j, when no β-glucuronidase enzyme was added, both diastereomers of 16 were fully stable at 37 °C for 72 h (Figures a,d, S63, S64, S66–68, S71, and S73). […] This premature release was greatest at acidic pH 3 for 16g, with very minimal lapachone release detected at pH 5–9 (Figure c). The released lapachone was quantified and compared to the starting concentration of each prodrug to calculate the percent of the prodrug that had been prematurely released (Figures f,g, S76). […] Therefore, a trade-off exists between ring activation, improving the release rate from 3 while also decreasing prodrug stability, and it rendered 16g clinically disadvantageous.  5 Stability of prodrugs is pH dependent. The representative HPLC traces for (a) a stable prodrug 16a and (b) an unstable prodrug 16g are shown after incubation at 37 °C in pH 7.4 PBS buffer. […] (c) The area of the lapachone peak for 16g normalized to the IS was plotted, displaying substantial growth over time at pH 3. […] For panels c–g, each value is plotted as the mean ± SD of three replicates. The HPLC traces (Figures S50–S62) and peak area graphs (Figures S63–S75) for all other derivatives can be found in the Supporting Information. The stability of 26 was also evaluated from pH 3–9 (Figures d,f–h S86–S87). […] This degradation was the largest at pH 9, with a measurable decrease in the prodrug peak area after 72 h (Figure g). The lapachone released after 72 h was quantified using a standard curve (Tables S6.1–S6.2). At pH 3 and 5, approximately 0.2% of the total prodrug lapachone had been released.

PANC-1 = assay: PDAC cell viability after 72 h of treatment, PANC-1; assay type: cell-based
Procedure: (§1) All ortho-quinone prodrug derivatives were tested on two pancreatic cancer cell lines, PANC-1 and AsPC-1, to assess efficacy in cell killing (Figures , S88–89, S91, Tables , and S8.1). Exogenous β-glucuronidase was added to the cell media to mimic the extracellular enzyme present in the TME. […] Those derivatives with release rates slower than that of 16a, like 16e, had less efficacy in cells comparatively (Table ).
(§2) 7 PDAC cell viability with prodrug treatment. Representative PANC-1 (a) and AsPC-1 (b) cell viability data of four β-lapachone prodrug derivatives after 72 h of treatment with exogenous β-glucuronidase added. Panels (c, d) show the toxicity of functional prodrugs up to 100 μM in PANC-1 (c) and AsPC-1 (d) cells without exogenous β-glucuronidase enzyme present after 72 h incubation.
(§3) To assess the TW of the prodrug derivatives, we tested each of them in both the PANC-1 and AsPC-1 cell lines at up to 100 μM without the β-glucuronidase enzyme present. In agreement with the HPLC stability assay data, we saw no toxicity in all stable prodrug derivatives up to this concentration (Figure c,d). […] In comparison, all the stable glucuronide prodrug derivatives retained 100% viability at 100 μM. […] It is generally considered that a drug has a good therapeutic safety profile if the TI is greater than 10, which our best derivatives far exceed, signaling that our prodrug is safe to deliver systemically in future in vivo experiments and should not cause any adverse effects in areas where β-glucuronidase is not overexpressed. ,

AsPC-1 = assay: PDAC cell viability after 72 h of treatment, AsPC-1; assay type: cell-based; settings: for IC50: Homo sapiens
Procedure: as §1, §2, §3

[3] = exogenous β-glucuronidase added, average ± SD of biological replicates
[4] = Homo sapiens, PANC-1, exogenous β-glucuronidase added, average ± SD of biological replicates, read-out: PANC-1 IC50
[5] = ASPC1, exogenous β-glucuronidase added, average ± SD of biological replicates, read-out: AsPC-1 IC50
[6] = ASPC1, exogenous β-glucuronidase added, representative experiment, read-out: IC50 on AsPC-1, representative viability data (Figure 7b)
[7] = Homo sapiens, PANC-1, exogenous β-glucuronidase added, representative experiment, read-out: IC50 on PANC-1, representative viability data (Figure 7a)

Structure (SMILES) | stability of the prodrug without triggering enzyme [2] | IC50 (PANC-1; [4]) | IC50 (AsPC-1; [5]) | also measured
COc1cc(N)ccc1CC1(O)C(=O)C2=C(OC(C)(C)CC2)c2ccccc21 (centres unmarked) [compound 25] |  |  |  | release rate faster than unsubstituted parent [1]: around 2 orders of magnitude
CC1(C)CCC2=C(O1)c1ccccc1C(O)(Cc1c(F)c(F)c(O[C@@H]3O[C@H](C(=O)O)[C@@H](O)[C@H](O)[C@H]3O)c(F)c1F)C2=O (some centres unmarked) [16c] | trace β-lapachone release was detected |  |  | PANC-1 IC50 (PANC-1; [3]): Inactive; AsPC-1 IC50 (AsPC-1; [3]): Inactive
CCCN(C)S(=O)(=O)c1cc(CC2(O)C(=O)C3=C(OC(C)(C)CC3)c3ccccc32)ccc1O[C@@H]1O[C@H](C(=O)O)[C@@H](O)[C@H](O)[C@H]1O (single isomer, unassigned) [16e] | fully stable |  |  | 
CC1(C)CCC2=C(O1)c1ccccc1C(O)(Cc1c(F)cc(O[C@@H]3O[C@H](C(=O)O)[C@@H](O)[C@H](O)[C@H]3O)cc1F)C2=O (some centres unmarked) [16d] | fully stable | 21 ± 3 µM |  | 
COc1cc(O)ccc1CC1(O)C(=O)C2=C(OC(C)(C)CC2)c2ccccc21 (centres unmarked) [3f] |  |  |  | release rate faster than unsubstituted parent [1]: around 2 orders of magnitude
COc1cc(O)cc(OC)c1CC1(O)C(=O)C2=C(OC(C)(C)CC2)c2ccccc21 (centres unmarked) [3g] |  |  |  | acceleration of release rate at pH 5 ([1]; pH 5, compared with unsubstituted 3a): ~2200 fold; acceleration of release rate at pH 7.5 ([1]; pH 7.5, compared with unsubstituted 3a): ~800 fold
CC1(C)CCC2=C(O1)c1ccccc1C(O)(Cc1cc(F)c(O[C@@H]3O[C@H](C(=O)O)[C@@H](O)[C@H](O)[C@H]3O)c(F)c1)C2=O (some centres unmarked) [16b] | fully stable | 11 ± 2 µM | 24 µM | 
CC1(C)CCC2=C(O1)c1ccccc1C(O)(Cc1ccc(O[C@@H]3O[C@H](C(=O)O)[C@@H](O)[C@H](O)[C@H]3O)cc1)C2=O (some centres unmarked) [16a] | fully stable | 9.6 ± 0.9 µM | 19 ± 3 µM | IC50 (PANC-1; [7]): 11 µM; IC50 (AsPC-1; [6]): 16 µM
CC1(C)CCC2=C(O1)c1ccccc1C(O)(Cc1ccc(B(O)O)cc1)C2=O (centres unmarked) [compound 26, reference compound] |  |  |  | premature lapachone release, percent of total prodrug ([2]; pH 3): approximately 0.2%; premature lapachone release, percent of total prodrug ([2]; pH 5): approximately 0.2%; premature lapachone release, percent of total prodrug ([2]; pH 7): ~0.6%; premature lapachone release, percent of total prodrug ([2]; pH 7.4): ~2.3%; premature lapachone release, percent of total prodrug ([2]; pH 9): ~10.9%
CC1(C)CCC2=C(O1)c1ccccc1C(O)(Cc1ccccc1)C2=O (centres unmarked) [compound 27, reference compound] |  |  |  | IC50 (PANC-1; exogenous β-glucuronidase added, average ± SD of biological replicates, read-out: PANC-1 IC50): 70 µM; IC50 (PANC-1; no release-triggering enzyme, tested up to 100 μM, read-out: IC50 in PANC-1 without exogenous β-glucuronidase): 70 µM

Now from value to compound, other results behind:

stability of the prodrug without triggering enzyme [2] | IC50 (PANC-1; [4]) | IC50 (AsPC-1; [5]) | Structure (SMILES) | also measured
 | 1.8 ± 0.2 µM | 5.4 ± 0.7 µM | CC1(C)CCC2=C(O1)c1ccccc1C(=O)C2=O [compound 1, β-lapachone, reference compound] | IC50 (AsPC-1; [6]): 4.7 µM
trace β-lapachone release was detected | 0.8 ± 0.5 µM | 0.9 ± 0.5 µM | CC(c1ccc(O[C@@H]2O[C@H](C(=O)O)[C@@H](O)[C@H](O)[C@H]2O)cc1)C1(O)C(=O)C2=C(OC(C)(C)CC2)c2ccccc21 (some centres unmarked) [16i] | IC50 (PANC-1; [7]): 0.3 µM; IC50 (AsPC-1; [6]): 0.5 µM
fully stable | 1.1 ± 0.4 µM | 2.8 ± 1 µM | COCCOc1cc(O[C@@H]2O[C@H](C(=O)O)[C@@H](O)[C@H](O)[C@H]2O)ccc1CC1(O)C(=O)C2=C(OC(C)(C)CC2)c2ccccc21 (some centres unmarked) [16j] | 
trace β-lapachone release was detected | 1.2 ± 0.3 µM | 1.6 ± 0.6 µM | COc1cc(O[C@@H]2O[C@H](C(=O)O)[C@@H](O)[C@H](O)[C@H]2O)cc(OC)c1CC1(O)C(=O)C2=C(OC(C)(C)CC2)c2ccccc21 (mixture of isomers) [16g] | IC50 (PANC-1; Homo sapiens, PANC-1, no enzyme, value printed in the picture, read-out: IC50, prodrug toxicity without β-glucuronidase on PANC-1 (Figure 7c)): 20 µM; IC50 (PANC-1; Homo sapiens, PANC-1, no release-triggering enzyme, tested up to 100 μM, read-out: IC50 in PANC-1 without exogenous β-glucuronidase): 26 ± 6 µM; IC50 (AsPC-1; ASPC1, no enzyme, value printed in the picture, read-out: IC50, prodrug toxicity without β-glucuronidase on AsPC-1 (Figure 7d)): 68 µM; IC50 (AsPC-1; ASPC1, no release-triggering enzyme, tested up to 100 μM, read-out: IC50 in AsPC-1 without exogenous β-glucuronidase): 75 ± 7 µM
fully stable | 1.2 ± 0.4 µM | 3.2 ± 1.7 µM | COc1cc(CC2(O)C(=O)C3=C(OC(C)(C)CC3)c3ccccc32)cc(OC)c1O[C@@H]1O[C@H](C(=O)O)[C@@H](O)[C@H](O)[C@H]1O (some centres unmarked) [16h] | 
trace β-lapachone release was detected |  |  | COc1cc(NC(=O)Cc2ccccc2)ccc1CC1(O)C(=O)C2=C(OC(C)(C)CC2)c2ccccc21 (centres unmarked) [compound 22] | 
